Reference: PubChem BioAssay AID200 (DTP/NCI, 2004)
Where “and” joins values, the source holds several entries; their conditions need not be identical. Equal values may be shown once. Inconclusive results and toxic doses are left out. Rule for the calls: active = survival T/C of 150% or more; inactive = T/C below 125% in these data. *1 amine or outer side, *2 acyl side, *3 side chain or, on linkers, in order; H or OH if unused. Where a SMILES comes first, the peptide text is derived from it. Bridges are numbered along the chain shown (N, C = ends). [ ]: non-standard residue; d: D form. The star is where a group is joined. X5 = CC(C)C(C)C(C(=O)[*:2])N(C)[*:1]; Picolinoyl(3-OH) = O=C(c1ncccc1O)*; NMePhg = CN[CH](C(=O)O)c1ccccc1; Hyp = O=C(O)[CH]1C[CH](O)CN1; Sar = CNCC(=O)O

System: B6C3F1 mice, B16 melanoma ip, median survival T/C
Assay: NCI In Vivo Anticancer Drug Screen. Data for tumor model B16 Melanoma (intraperitoneal) in B6C3F1 mice
Settings: endpoint: median survival time, higher = longer survival
Method in brief: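 Mice bearing transplanted tumor were dosed with compound or vehicle, and survival was recorded. Activity is expressed as the treated-group measurement (T) divided by the vehicle control measurement (C).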

[1] = dose: 12.5 mg/kg/injection, schedule: Q01DX009 (ip), vehicle: saline
[2] = dose: 25.0 mg/kg/injection, schedule: Q01DX009 (ip), vehicle: saline
[3] = dose: 50.0 mg/kg/injection, schedule: Q01DX009 (ip), vehicle: saline
[4] = dose: 400.0 mg/kg/injection, schedule: Q01DX009 (ip), vehicle: saline
[5] = dose: 6.25 mg/kg/injection, schedule: Q01DX009 (ip), vehicle: Klucel (hydroxypropylcellulose) (HPC)
[6] = dose: 12.5 mg/kg/injection, schedule: Q01DX009 (ip), vehicle: Klucel (hydroxypropylcellulose) (HPC)
[7] = dose: 25.0 mg/kg/injection, schedule: Q01DX009 (ip), vehicle: Klucel (hydroxypropylcellulose) (HPC)
[8] = dose: 50.0 mg/kg/injection, schedule: Q01DX009 (ip), vehicle: Klucel (hydroxypropylcellulose) (HPC)
[9] = dose: 100.0 mg/kg/injection, schedule: Q01DX009 (ip), vehicle: Klucel (hydroxypropylcellulose) (HPC)
[10] = dose: 100.0 mg/kg/injection, schedule: Q01DX009 (ip), vehicle: saline
[11] = dose: 200.0 mg/kg/injection, schedule: Q01DX009 (ip), vehicle: saline
[12] = dose: 2.5 mg/kg/injection, schedule: Q01DX009 (ip), vehicle: saline
[13] = dose: 3.12 mg/kg/injection, schedule: Q01DX009 (ip), vehicle: saline with Tween-80
[14] = dose: 6.25 mg/kg/injection, schedule: Q01DX009 (ip), vehicle: saline with Tween-80
[15] = dose: 12.5 mg/kg/injection, schedule: Q01DX009 (ip), vehicle: saline with Tween-80
[16] = dose: 25.0 mg/kg/injection, schedule: Q01DX009 (ip), vehicle: saline with Tween-80
[17] = dose: 50.0 mg/kg/injection, schedule: Q01DX009 (ip), vehicle: saline with Tween-80
[18] = dose: 6.25 mg/kg/injection, schedule: Q01DX009 (ip), vehicle: saline
[19] = dose: 12.0 mg/kg/injection, schedule: Q01DX009 (ip), vehicle: saline
[20] = dose: 100.0 mg/kg/injection, schedule: Q01DX009 (ip), vehicle: saline with Tween-80
[21] = dose: 200.0 mg/kg/injection, schedule: Q01DX009 (ip), vehicle: saline with Tween-80

Measured: T/C

O=C1C=CC(=O)O1 (tested in a mixture with another compound)
inactive: [1] 101 % of control | dose: 12.5 mg/kg/injection, schedule: Q04DX003 (ip), vehicle: saline 104 % of control | [2] 113 % of control | dose: 25.0 mg/kg/injection, schedule: Q04DX003 (ip), vehicle: saline 101 % of control and 106 % of control | [3] 117 % of control | dose: 50.0 mg/kg/injection, schedule: Q04DX003 (ip), vehicle: saline 108 % of control | [4] 123 % of control

O=C(CC(=O)C(F)(F)F)c1csc2ccccc12
inactive: dose: 3.12 mg/kg/injection, schedule: Q01DX009 (ip), vehicle: Klucel (hydroxypropylcellulose) (HPC) 112 % of control | [5] 89 % of control | [6] 103 % of control | [7] 113 % of control | [8] 100 % of control | [9] 87 % of control

CC1=NN(c2ccccc2)C(=O)C1N=Nc1ccccc1S(=O)(=O)O (centres undefined)
inactive: [1] 104 % of control | [2] 94 % of control | [3] 96 % of control

CCOC(=O)NC1=C(N2CC2)C(=O)C(NC(=O)OCC)=C(N2CC2)C1=O
inactive: dose: 0.25 mg/kg/injection, schedule: Q01DX009 (ip), vehicle: saline 97 % of control | dose: 0.5 mg/kg/injection, schedule: Q01DX009 (ip), vehicle: saline 92 % of control | dose: 2.0 mg/kg/injection, schedule: Q01DX009 (ip), vehicle: saline 115 % of control

Nc1ncnc2c1ncn2C1OC(COP(=O)(O)O)C(O)C1O (centres undefined)
inactive: dose: 40.0 mg/kg/injection, schedule: Q01DX009 (ip), vehicle: water 86 % of control | dose: 80.0 mg/kg/injection, schedule: Q01DX009 (ip), vehicle: water 88 % of control | [10] 109 % of control | dose: 160.0 mg/kg/injection, schedule: Q01DX009 (ip), vehicle: water 94 % of control | [11] 109 % of control | dose: 320.0 mg/kg/injection, schedule: Q01DX009 (ip), vehicle: water 97 % of control | [4] 115 % of control

NC1(C(=O)O)CCCc2ccc(N(CCCl)CCCl)cc21 (centres undefined)
active: dose: 10.0 mg/kg/injection, schedule: Q01DX009 (ip), vehicle: saline 157 % of control | dose: 20.0 mg/kg/injection, schedule: Q01DX009 (ip), vehicle: saline 189 % of control
inactive: [12] 120 % of control | dose: 10.0 mg/kg/injection, schedule: Q01DX009 (ip), vehicle: saline with Tween-80 121 % of control

O=CNCC(=O)O
inactive: [3] 91 % of control | [10] 89 % of control

O=Cc1ccc([N+](=O)[O-])s1
inactive: [13] 98 % of control | [14] 105 % of control | [15] 101 % of control | [16] 101 % of control | [17] 88 % of control

O=C1c2cccc(NCCCNCCO)c2C(=O)c2cccc(NCCCNCCO)c21
active: dose: 25.0 mg/kg/injection, schedule: Q01DX009 (ip), vehicle: acid diluted with saline 154 % of control
inactive: dose: 6.25 mg/kg/injection, schedule: Q01DX009 (ip), vehicle: acid diluted with saline 102 % of control | dose: 12.5 mg/kg/injection, schedule: Q01DX009 (ip), vehicle: acid diluted with saline 108 % of control

CCC(C(=O)O)C(=O)O.[NH-]CC1CCCC[N-]1.[Pt+2]
inactive: [18] 108 % of control | [1] 102 % of control | dose: 12.5 mg/kg/injection, schedule: Q01DX009 (ip), vehicle: suspension in saline 113 % of control | [2] 101 % of control | dose: 25.0 mg/kg/injection, schedule: Q01DX009 (ip), vehicle: suspension in saline 115 % of control | dose: 50.0 mg/kg/injection, schedule: Q01DX009 (ip), vehicle: suspension in saline 123 % of control

CC(C)CC1NC(=O)C(NC(=O)c2ncccc2O)C(C)OC(=O)C(c2ccccc2)N(C)C(=O)C(C)NC(=O)C(C(C)C(C)C)N(C)C(=O)CN(C)C(=O)C2CC(O)CN2C1=O (centres undefined) ({Picolinoyl(3-OH)}-TL[Hyp][Sar][X5]A[NMePhg]; ester 1-C; configuration not given here)
inactive: [8] 103 % of control | [9] 107 % of control | dose: 200.0 mg/kg/injection, schedule: Q01DX009 (ip), vehicle: Klucel (hydroxypropylcellulose) (HPC) 111 % of control

CC(=O)Nc1ccc(Nc2ccc(C(=C3C=CC(=[N+](C)CCC#N)C=C3)c3ccc(N(C)CCC#N)cc3)cc2)cc1
inactive: dose: 0.78 mg/kg/injection, schedule: Q01DX009 (ip), vehicle: saline with Tween-80 105 % of control | dose: 1.56 mg/kg/injection, schedule: Q01DX009 (ip), vehicle: saline with Tween-80 108 % of control | [13] 105 % of control | [14] 107 % of control | [15] 120 % of control | [16] 106 % of control

C/C(=N\NC(=O)c1ccncc1)c1ccc(Cl)cc1
inactive: dose: 1.25 mg/kg/injection, schedule: Q01DX009 (ip), vehicle: saline 96 % of control | [12] 98 % of control | dose: 5.0 mg/kg/injection, schedule: Q01DX009 (ip), vehicle: saline 107 % of control

Nc1nc(-c2cccc(S(=O)(=O)O)c2)c([N+](=O)[O-])c(=O)[nH]1
inactive: dose: 12.88 mg/kg/injection, schedule: Q01DX009 (ip), vehicle: saline 99 % of control | dose: 25.75 mg/kg/injection, schedule: Q01DX009 (ip), vehicle: saline 96 % of control | dose: 51.5 mg/kg/injection, schedule: Q01DX009 (ip), vehicle: saline 109 % of control

CN(N=O)C(N)=O
active: [19] 188 % of control

C/C=C1/C(=O)O[C@]23C=C[C@@H]4C(C(=O)OC)=CO[C@H](O[C@@H]12)[C@@H]43
inactive: dose: 3.75 mg/kg/injection, schedule: Q01DX009 (ip), vehicle: Klucel (hydroxypropylcellulose) (HPC) 102 % of control | dose: 7.5 mg/kg/injection, schedule: Q01DX009 (ip), vehicle: Klucel (hydroxypropylcellulose) (HPC) 91 % of control | dose: 15.0 mg/kg/injection, schedule: Q01DX009 (ip), vehicle: Klucel (hydroxypropylcellulose) (HPC) 98 % of control

NC(CNC(=O)CBr)C(=O)O (centres undefined)
active: dose: 50.0 mg/kg/injection, schedule: Q01DX009 (ip), vehicle: water 153 % of control
inactive: dose: 6.25 mg/kg/injection, schedule: Q01DX009 (ip), vehicle: water 112 % of control and 117 % of control and 104 % of control | dose: 12.5 mg/kg/injection, schedule: Q01DX009 (ip), vehicle: water 116 % of control and 118 % of control

CN(C)CCCOc1nc2c(c(=O)n(C)c(=O)n2C)n1C (tested in a mixture with another compound)
inactive: [5] 90 % of control | [6] 111 % of control | [7] 102 % of control | [8] 107 % of control

Nc1ncn(C2OC(CO)C(O)C2O)c(=O)n1 (centres undefined)
inactive: dose: 0.37 mg/kg/injection, schedule: Q01DX009 (ip), vehicle: saline 106 % of control | dose: 0.75 mg/kg/injection, schedule: Q01DX009 (ip), vehicle: saline 111 % of control | dose: 1.5 mg/kg/injection, schedule: Q01DX009 (ip), vehicle: saline 112 % of control | dose: 6.0 mg/kg/injection, schedule: Q01DX009 (ip), vehicle: saline 114 % of control | [18] 105 % of control | [19] 112 % of control | [1] 112 % of control | [2] 117 % of control and 119 % of control | [3] 116 % of control and 117 % of control (2×)
active: [11] 153 % of control

COc1cc(C(C)(C)C)cc(OC)c1C(O)(c1c(OC)cc(C(C)(C)C)cc1OC)c1c(OC)cc(C(C)(C)C)cc1OC
inactive: [14] 107 % of control | [15] 114 % of control and 106 % of control | [16] 112 % of control and 106 % of control | [17] 117 % of control | [20] 109 % of control

CCSC(=O)N1c2ccc(OC)cc2C=CC1C#N (centres undefined)
inactive: [17] 121 % of control and 95 % of control | [20] 124 % of control and 107 % of control | [21] 110 % of control

Oc1ccc2ccccc2c1N=Nc1ccc(Cl)cc1
inactive: [17] 115 % of control and 118 % of control | [20] 114 % of control and 103 % of control | [21] 92 % of control and 101 % of control | dose: 400.0 mg/kg/injection, schedule: Q01DX009 (ip), vehicle: saline with Tween-80 109 % of control
